Molecules are shown by their SMILES.

The nature of series [1]: PK protocol (intravenous and oral administration). Type of series: in vivo, male Sprague Dawley rats. The settings on record: male, Sprague Dawley, plasma, rat; for Vd: read-out: Vdss.
Series [2] addresses T1, NLRP3 (Homo sapiens, UniProt Q96P20). Briefly: THP-1 cells pyroptosis assay. The settings on record: LPS 1 μg/ml, nigericin 5 μM, resazurin read-out. More on the design: Seed THP-1 cells (25,000 cells/well) containing 1.0 μg/ml LPS; host or cells: THP-1 cells, LPS-primed, nigericin-stimulated. The format is cell-based. The method in brief:
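THP-1 cells (25,000/well) primed with 1 μg/ml LPS in serum-free RPMI, given compound (8-point half-log, 10 μM top, 0.1% DMSO) for 3 hrs, then nigericin 5 μM for 1 hr at 37° C. Viability of remaining cells read by resazurin (100 μM, 1–2 hrs) fluorescence; IC50 from 4-parameter fit.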

Series [3] addresses T1, NLRP3. In words: Human whole blood IL1β release assay. Type of series: cell-based. More on the design: Plate out 80 μl of whole blood containing 1 μg/ml of LPS; from tissue; host or cells: human whole blood from healthy donors, LPS-primed, nigericin-stimulated. Particulars: LPS 1 μg/ml, nigericin 10 μM, IL-1β AlphaLisa, read-out: HWB IC50. The method in brief: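 Donor Li-heparin whole blood with 1 μg/ml LPS preincubated 3 h at 37 °C with compound (8-point half-log series, 10 μM top; 0.1% DMSO). Nigericin (10 μM final) added for 1 h, then supernatant IL-1β measured by AlphaLISA. IC50 from 4-parameter variable-slope fit.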

T1 sequence (Q96P20 whole entry): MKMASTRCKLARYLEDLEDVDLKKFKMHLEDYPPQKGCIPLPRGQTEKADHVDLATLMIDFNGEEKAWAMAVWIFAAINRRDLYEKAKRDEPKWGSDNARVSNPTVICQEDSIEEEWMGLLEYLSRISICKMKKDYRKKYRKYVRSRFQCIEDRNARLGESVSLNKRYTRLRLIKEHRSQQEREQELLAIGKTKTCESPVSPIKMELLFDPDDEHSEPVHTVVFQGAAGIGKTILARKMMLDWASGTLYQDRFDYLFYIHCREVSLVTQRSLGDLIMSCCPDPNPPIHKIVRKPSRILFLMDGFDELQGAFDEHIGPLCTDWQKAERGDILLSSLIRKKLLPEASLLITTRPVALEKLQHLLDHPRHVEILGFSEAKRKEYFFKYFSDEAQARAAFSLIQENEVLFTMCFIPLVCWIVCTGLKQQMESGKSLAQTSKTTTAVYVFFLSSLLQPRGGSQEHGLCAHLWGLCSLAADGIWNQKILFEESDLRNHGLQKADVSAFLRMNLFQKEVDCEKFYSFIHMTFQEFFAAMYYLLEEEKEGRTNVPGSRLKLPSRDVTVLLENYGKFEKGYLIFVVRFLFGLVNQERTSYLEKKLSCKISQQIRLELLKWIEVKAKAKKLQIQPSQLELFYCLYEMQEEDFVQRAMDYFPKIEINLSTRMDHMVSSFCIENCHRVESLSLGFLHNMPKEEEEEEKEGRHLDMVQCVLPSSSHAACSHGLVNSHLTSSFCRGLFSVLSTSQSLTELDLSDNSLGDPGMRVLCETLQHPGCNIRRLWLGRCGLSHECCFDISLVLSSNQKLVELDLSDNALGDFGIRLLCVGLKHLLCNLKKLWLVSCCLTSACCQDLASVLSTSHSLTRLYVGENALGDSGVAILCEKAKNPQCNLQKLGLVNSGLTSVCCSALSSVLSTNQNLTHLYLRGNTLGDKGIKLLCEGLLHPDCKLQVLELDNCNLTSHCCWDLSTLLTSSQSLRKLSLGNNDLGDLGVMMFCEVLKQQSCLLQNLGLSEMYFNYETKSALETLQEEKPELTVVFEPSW

The term AUC denotes the area under the concentration-time curve, a measure of exposure. Low values mean low exposure, high ones high exposure. The half-life is the time in which the quantity being followed falls by half. Broadly, the IC50 is the concentration needed to halve the response being measured. Take `O=C(Nc1c2c(cc3c1CCC3)CCC2)NS(=O)(=O)c1ccn(CC2CCCO2)n1` (stereo not drawn) [Example 3, N-((1,2,3,5,6,7-Hexahydro-s-indacen-4-yl)carbamoyl)-1-((tetrahydrofuran-2-yl)methyl)-1H-pyrazole-3-sulfonamide]: in series [1] (intravenous, dose 1 mg/kg), the area under the curve (AUC) worked out at 3680 ng·h/mL, the clearance turned out to be 4.5 mL/min/kg, the half-life was 6.7 h and the Vd was 1.57 L/kg. Also, on NLRP3 [2], the IC50 lay in the range of 40 to 160 nM. At NLRP3 [3], the IC50 lay within 800 to 1600 nM.

What is called CL/F is clearance divided by bioavailability, as obtained after extravascular dosing. As a reminder, the Cmax is the highest concentration seen after dosing. The Tmax is the time at which the peak concentration occurs. As usually defined, the bioavailability is the share of a dose that reaches the circulation, judged against a reference dose that is usually intravenous. On to `CC(C)(O)Cn1ccc(S(=O)(=O)NC(=O)Nc2c3c(cc4c2CCC4)CCC3)n1` [Example 10, N-((1,2,3,5,6,7-Hexahydro-s-indacen-4-yl)carbamoyl)-1-(2-hydroxy-2-methylpropyl)-1H-pyrazole-3-sulfonamide], for which, in series [1] (intravenous, dose 1 mg/kg), the AUC was 4290 ng·h/mL, the clearance is 3.9 mL/min/kg, the half-life was 2.9 h and the Vd was determined as 0.61 L/kg. Also, in series [1] (oral, dose 3 mg/kg), the AUC was 9660 ng·h/mL, the CL/F worked out at 5.2 mL/min/kg, the Cmax turned out to be 1770 ng/mL and the Tmax was 0.29 h. In series [1] (oral, dose 3 mg/kg), this compound had a bioavailability of 75% and a half-life of 3.5 h. For the same compound, the IC50 on NLRP3 [2] was 40 to 160 nM. Further, at NLRP3 [3], the IC50 is 400 to 800 nM.

In the case of `C[C@H](O)Cn1ccc(S(=O)(=O)NC(=O)Nc2c3c(cc4c2CCC4)CCC3)n1` [Example 11, (S)—N-((1,2,3,5,6,7-Hexahydro-s-indacen-4-yl)carbamoyl)-1-(2-hydroxypropyl)-1H-pyrazole-3-sulfonamide], in series [1] (intravenous, dose 1 mg/kg), the AUC amounted to 7380 ng·h/mL, the clearance came out at 2.3 mL/min/kg, the half-life is 2.9 h and the Vd was 0.36 L/kg. Besides, on NLRP3 [2], the concentration for half-maximal inhibition (IC50) lay in the range of 40 to 160 nM. Also, the IC50 at NLRP3 [3] was less than 400 nM.

For the compound `C[C@H](CO)n1ccc(S(=O)(=O)NC(=O)Nc2c3c(cc4c2CCC4)CCC3)n1` [Example 13, (R)—N-((1,2,3,5,6,7-Hexahydro-s-indacen-4-yl)carbamoyl)-1-(1-hydroxypropan-2-yl)-1H-pyrazole-3-sulfonamide], in series [1] (intravenous, dose 1 mg/kg), the AUC was 38700 ng·h/mL, the clearance amounted to 0.4 mL/min/kg, the half-life was 3.6 h and the Vd was 0.09 L/kg. Moreover, on NLRP3 [2], the IC50 was in the range of 160 to 640 nM. Moreover, on NLRP3 [3], the IC50 is less than 400 nM.

With `C[C@@H](O)Cn1ccc(S(=O)(=O)NC(=O)Nc2c3c(cc4c2CCC4)CCC3)n1` [Example 16, (R)—N-((1,2,3,5,6,7-Hexahydro-s-indacen-4-yl)carbamoyl)-1-(2-hydroxypropyl)-1H-pyrazole-3-sulfonamide], in series [1] (intravenous, dose 1 mg/kg), the AUC came to 10200 ng·h/mL, the clearance was 1.8 mL/min/kg, the half-life is 3.8 h and the Vd turned out to be 0.41 L/kg. Besides, in series [1] (oral, dose 3 mg/kg), the AUC amounted to 19600 ng·h/mL, the CL/F came to 2.6 mL/min/kg, the concentration peaked (Cmax) at 3960 ng/mL and the Tmax is 0.83 h. In series [1] (oral, dose 3 mg/kg), this compound had a bioavailability of 63.8% and a half-life of 3.2 h. Besides, the IC50 at NLRP3 [2] is 40 to 160 nM. Also, on NLRP3 [3], the IC50 is 400 to 800 nM.

With `O=C(Nc1c2c(cc3c1CCC3)CCC2)NS(=O)(=O)c1ccn(C2(CO)CCC2)n1` [Example 24, N-((1,2,3,5,6,7-Hexahydro-s-indacen-4-yl)carbamoyl)-1-(1-(hydroxymethyl)cyclobutyl)-1H-pyrazole-3-sulfonamide], in series [1] (intravenous, dose 1 mg/kg), the AUC is 7030 ng·h/mL, the clearance is 2.4 mL/min/kg, the half-life is 3.5 h and the Vd is 0.37 L/kg. Moreover, on NLRP3 [2], the IC50 was in the range of 40 to 160 nM. Moreover, the IC50 on NLRP3 [3] was less than 400 nM.

On to `COC1(c2cc(S(=O)(=O)NC(=O)Nc3c4c(cc5c3CCC5)CCC4)nn2C2CC2)COC1` [Example 38, 1-Cyclopropyl-N-((1,2,3,5,6,7-hexahydro-s-indacen-4-yl)carbamoyl)-5-(3-methoxyoxetan-3-yl)-1H-pyrazole-3-sulfonamide], for which, in series [1] (intravenous, dose 1 mg/kg), the AUC was 3880 ng·h/mL, the clearance came to 4.6 mL/min/kg, the half-life is 1.1 h and the Vd is 0.35 L/kg. Besides, the half-inhibitory concentration (IC50) on NLRP3 [2] was less than 40 nM. Further, the IC50 at NLRP3 [3] is less than 400 nM.
